These results are taken from ChEMBL document CHEMBL3227939, “Synthesis of daunorubicin analogues with novel 9-acyl substituents” (1979).

The subject of test [1] is L1210. Briefly: Inhibition of RNA synthesis in mouse L1210 cells. Conditions: read-out: ED50 (the source's name). The class given is functional.
For test [2], the system named is L1210. Briefly: Inhibition of DNA synthesis in mouse L1210 cells. The class given is functional. Conditions: read-out: ED50 (the source's name).
The next test relates to Calf thymus DNA. Briefly: Binding affinity to calf thymus DNA assessed as change in melting temperature. The class given is nucleic-acid assay. Conditions: Bos taurus.
Test [3] has as its system P388. Kind of test: Antitumor activity against mouse P388 cells allografted in CDF/RDF mouse assessed as increase in survival time at 12.5 mg/kg, ip administered once daily on day 5, 9 and 13 relative to control. The conditions noted are these: route intraperitoneal. It is filed as functional.
The test system of test [4] is P388. Briefly: Antitumor activity against mouse P388 cells allografted in CDF/RDF mouse assessed as increase in survival time at 4 mg/kg, ip administered once daily on days 1 to 9 relative to control. The class given is functional. Conditions: route intraperitoneal.
Test [5] has as its system P388. Kind of test: Antitumor activity against mouse P388 cells allografted in CDF/RDF mouse assessed as increase in survival time at 50 mg/kg, ip administered once daily on day 5, 9 and 13 relative to control. The conditions noted are these: route intraperitoneal. The class given is functional.
Test [6] relates to P388. Kind of test: Antitumor activity against mouse P388 cells allografted in CDF/RDF mouse assessed as increase in survival time at 3.13 mg/kg, ip administered once daily on days 1 to 9 relative to control. The class given is functional. Conditions: route intraperitoneal.
The subject of test [7] is P388. Kind of test: Antitumor activity against mouse P388 cells allografted in CDF/RDF mouse assessed as increase in survival time at 37.5 mg/kg, ip administered once daily on day 5, 9 and 13 relative to control. The class given is functional. The conditions noted are these: route intraperitoneal.

The ΔTm is the shift of the melting midpoint relative to a reference. As usually defined, the T/C is the result in the treated group divided by that in the control group, in per cent. Take `CCC(=O)[C@]1(O)Cc2c(O)c3c(c(O)c2[C@@H](O[C@H]2C[C@H](N)[C@H](O)[C@H](C)O2)C1)C(=O)c1c(OC)cccc1C3=O`: the EC50 is 0.29 µM in the test on L1210 [1] and 0.67 µM with L1210 [2]. For the same compound, the ΔTm in the test on Calf thymus DNA worked out at 11 °C. The T/C with P388 [3] was 128%.
`COc1cccc2c1C(=O)c1c(O)c3c(c(O)c1C2=O)C[C@@](O)(C=O)C[C@@H]3O[C@H]1C[C@H](N)[C@H](O)[C@H](C)O1`: the EC50 in the test on L1210 [1] was 2 µM; in the test with L1210 [2], 4.1 µM. In addition, the T/C in the test with P388 [4] was 169%; in the test on P388 [5] it was 154%. Moreover, the ΔTm in the test on Calf thymus DNA stood at 6.5 °C.
Take `COc1cccc2c1C(=O)c1c(O)c3c(c(O)c1C2=O)C[C@@](O)(C(=O)C(C)C)C[C@@H]3O[C@H]1C[C@H](N)[C@H](O)[C@H](C)O1`: the EC50 worked out at 0.4 µM in the test with L1210 [1] and 1 µM with L1210 [2]. Besides, the T/C amounted to 117% with P388 [6] and 122% in the test on P388 [7]. Further, the ΔTm with Calf thymus DNA stood at 10.3 °C.
With `COc1cccc2c1C(=O)c1c(O)c3c(c(O)c1C2=O)C[C@@](O)(C(=O)CO)C[C@@H]3O[C@H]1C[C@H](N)[C@H](O)[C@H](C)O1` [DOXORUBICIN], the EC50 was 0.58 µM in the test on L1210 [1] and 1.5 µM in the test on L1210 [2].
The corresponding values for `COc1cccc2c1C(=O)c1c(O)c3c(c(O)c1C2=O)C[C@@](O)(C(C)=O)C[C@@H]3O[C@H]1C[C@H](N)[C@H](O)[C@H](C)O1` [DAUNORUBICIN] are 0.33 µM and 0.66 µM.
With `COc1cccc2c1C(=O)c1c(O)c3c(c(O)c1C2=O)C[C@@](O)(C(=O)CCc1ccccc1)C[C@@H]3O[C@H]1C[C@H](N)[C@H](O)[C@H](C)O1`, the figures for the EC50 in the test with L1210 [1] and in the test with L1210 [2] were 1.6 µM and 1.5 µM, respectively. In addition, the ΔTm in the test with Calf thymus DNA was 8.6 °C. Also, the T/C in the test on P388 [5] was determined as 129%.
